Several values for one entry are separate records, joined by “and”; a condition that tells them apart may be missing. Identical values can stand only once. Bridge positions count the residues as written; N and C are the ends. Square brackets hold non-standard residues; d marks the D form. Ends that are not written are not given here. Peptide text beside a SMILES is read from it. 2Nal = N[C@@H](Cc1ccc2ccccc2c1)C(=O)O; d2Nal = N[C@H](Cc1ccc2ccccc2c1)C(=O)O; NF = naphthofluorescein
Experiments:
Keap1-Nrf2 interaction = Keap1-Nrf2 interaction (Homo sapiens, UniProt Q14145); experiment: Fluorescence anisotropy-based competition assay, inhibition of Keap1-Nrf2 peptide interaction; assay type: binding; details: for Decrease of affinity for Keap1 / inhibition potency: Asn-Ala analogues vs Asp-Pro parents (BH13, BH15, BH17), BH19: truncation of cargo to 6-aa; for IC50: FA competition with fluorescently labeled Nrf2 peptide and Keap1
Chain of Keap1-Nrf2 interaction (Q14145 321-609 limits assumed): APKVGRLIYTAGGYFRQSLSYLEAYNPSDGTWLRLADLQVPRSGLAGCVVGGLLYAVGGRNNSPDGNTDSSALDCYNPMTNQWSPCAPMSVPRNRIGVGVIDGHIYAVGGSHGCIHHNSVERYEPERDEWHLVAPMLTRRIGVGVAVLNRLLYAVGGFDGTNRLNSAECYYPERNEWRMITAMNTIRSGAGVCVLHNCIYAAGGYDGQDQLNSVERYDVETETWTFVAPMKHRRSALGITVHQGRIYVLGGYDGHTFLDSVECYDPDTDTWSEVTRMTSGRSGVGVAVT
Procedure: The percentage of inhibition was calculated from the fluorescence anisotropy decrease by using equation % Inhibition=(FAmax−FAobs)/(FAmax−FAmin)×100% and plotted against the inhibitor concentration.

HeLa cells = experiment: Cellular (cytosolic) uptake of NF-labeled peptides by flow cytometry (MFI); assay type: cell-based; details: for Cellular Uptake (MFINF, %): 5 μM NF-labeled peptide; for Cellular Uptake (MFINF, %) / Cellular Uptake (MFI^NF, %) of β-hairpin transporters: 2 h; for Improvement of cytosolic entry efficiency relative to BH4: D-amino acid diastereomers of BH4; for Cellular Uptake (MFI^NF, %), cytosolic delivery efficiency of CPPs without beta-hairpin moiety: relative to CPP 1 (100%), mean ± S.D. of three independent experiments; for Cellular Uptake (MFI^NF, %) of β-hairpin transporters: 5 μM peptide, DMEM with 10% FBS and 1% ABS, relative to CPP9 (100%)
Procedure: HeLa cells were treated with 5 μM peptide for 2 h, and their cell uptake efficiencies were determined by flow cytometry analysis. The mean fluorescence intensity (MFI) values derived from cytometry analyses reflect the amounts of peptides inside the cytosol and nucleus, whereas any NF-labeled peptide entrapped inside the acidic endosomes are invisible under the experimental conditions (Id.; Qian, Z et al. Chem. Commun. 2015, 51, 2162-2165).
The binding affinity of BH23 (unlabeled) for the Grb2 SH2 domain was then determined by examining its ability to compete with the FAM-labeled ligand for binding to the Grb2 SH2 domain by fluorescence polarization (FP). […] Next, BH23 was labeled with NF at the Asn side chain through a miniPEG-Lys linker and its cytosolic entry efficiency was quantitated by treating HeLa cells with 5 μM of the labeled peptide for 2 h before flow cytometry analysis. […] BH23 was also similarly labeled at the Asn side chain with FAM and its entry into HeLa cells was examined by live-cell confocal microscopy. […] Two control peptides (BH24 and BH25) were also prepared for cellular assays. BH24 and BH25 are structurally similar to BH23, except that BH24 contained a Tyr instead of the pY residue (FIG. 11), whereas in BH25 the two hydrophobic residues critical for cellular uptake (Nal-arg) were replaced with Ala-ala (FIG. 12).
BHT1 and BHT2 were labeled with naphthofluorescein (NF) and their cytosolic uptake into HeLa cells was determined by flow cytometry (Table 10).
Additional cell penetrating compounds were prepared and tested for cytosolic delivery. In these compounds there was no beta-hairpin turn creating moiety.

[1] = HeLa cells, flow cytometry, relative to CPP1 (100%)

Molecule | Cellular Uptake (MFI^NF, %), cytosolic delivery efficiency of CPPs without beta-hairpin moiety (HeLa cells) [%] | also measured
CC(C)C[C@@H]1NC(=O)[C@H](Cc2ccccc2)NC(=O)[C@H](CCCNC(=N)N)NC(=O)[C@H](CCCNC(=N)N)NC(=O)[C@@H]2CCCN2C(=O)[C@H]2CCCN2C(=O)[C@@H](CCCNC(=N)N)NC(=O)[C@H](Cc2ccc3ccccc3c2)NC(=O)[C@H](Cc2ccccc2)NC(=O)[C@H](CCC(=O)O)NC(=O)CNC(=O)[C@H]([C@@H](C)O)NC(=O)[C@H](CCC(=O)O)NC(=O)[C@H](C)NC(=O)[C@H](CC(N)=O)NC1=O [BH18, cyclo(F-Φ-r-p-P-R-R-F-L-N-A-E-T-G-E)] (cyclo(F[2Nal][dR][dP]PRRFLNAETGE)) | – | Decrease of affinity for Keap1 / inhibition potency (Keap1-Nrf2 interaction): ~10 fold; IC50 (Keap1-Nrf2 interaction): 1.4 ± 0.15 µM
CC(C)C[C@@H]1NC(=O)[C@H](CCC(N)=O)NC(=O)[C@H](Cc2ccccc2)NC(=O)[C@H](CCCNC(=N)N)NC(=O)[C@H](CCCNC(=N)N)NC(=O)[C@@H]2CCCN2C(=O)[C@H]2CCCN2C(=O)[C@@H](CCCNC(=N)N)NC(=O)[C@H](Cc2ccc3ccccc3c2)NC(=O)[C@H](Cc2ccccc2)NC(=O)[C@H](Cc2ccccc2)NC(=O)[C@H](CCC(=O)O)NC(=O)CNC(=O)[C@H]([C@@H](C)O)NC(=O)[C@H](CCC(=O)O)NC(=O)[C@H](C)NC(=O)[C@H](CC(N)=O)NC1=O [BH14, cyclo(F-F-Φ-r-p-P-R-R-F-Q-L-N-A-E-T-G-E)] (cyclo(FF[2Nal][dR][dP]PRRFQLNAETGE)) | – | Decrease of affinity for Keap1 / inhibition potency (Keap1-Nrf2 interaction): ~10 fold; IC50 (Keap1-Nrf2 interaction): 1.4 ± 0.13 µM
cyclo(A-A-F-φ-R-p-P-R-R-F-A-A-A-Q)-miniPEG-K(NF) (cyclo(AAF[d2Nal]R[dP]PRRFAAAQ); not fully specified (residue 14); printed as cyclo(A-A-F-φ-R-p-P-R-R-F-A-A-A-Q)-miniPEG-K(NF)) [BH8] | – | Cellular Uptake (MFINF, %) (HeLa cells; [1]): 235%; Improvement of cytosolic entry efficiency relative to BH4 (HeLa cells; HeLa cells): 3 fold
CC(C)C[C@@H]1NC(=O)[C@H](Cc2ccccc2)NC(=O)[C@H](CCCNC(=N)N)NC(=O)[C@H](CCCNC(=N)N)NC(=O)[C@@H]2CCCN2C(=O)[C@H]2CCCN2C(=O)[C@@H](CCCNC(=N)N)NC(=O)[C@H](Cc2ccc3ccccc3c2)NC(=O)[C@H](Cc2ccccc2)NC(=O)[C@H](Cc2ccccc2)NC(=O)[C@H](CCC(=O)O)NC(=O)CNC(=O)[C@H]([C@@H](C)O)NC(=O)[C@H](CCC(=O)O)NC(=O)[C@H](C)NC(=O)[C@H](CC(N)=O)NC1=O [BH16, cyclo(F-F-Φ-r-p-P-R-R-F-L-N-A-E-T-G-E)] (cyclo(FF[2Nal][dR][dP]PRRFLNAETGE)) | – | Decrease of affinity for Keap1 / inhibition potency (Keap1-Nrf2 interaction): ~10 fold
279 (cyclo(F[2Nal][dR]R[dR]Q)) [Peptide 279] | 76 | –
cyclo(AFΦPRRFQ)-miniPEG-K(NF) [BHT1] | – | Cellular Uptake (MFI^NF, %) of β-hairpin transporters (HeLa cells; HeLa cells): 88% and 88 ± 11%
237 (FRFRRQ; cyclic) [Peptide 237] | 15 ± 3 | –
cyclo(D-A-F-Φ-r-p-P-R-R-F-D-A-D-Q)-miniPEG-K(NF) (cyclo(DAF[2Nal][dR][dP]PRRFDADQ); not fully specified (residue 14); printed as cyclo(D-A-F-Φ-r-p-P-R-R-F-D-A-D-Q)-miniPEG-K(NF)) [BH10] | – | Cellular Uptake (MFINF, %) (HeLa cells; [1]): 44 ± 19%; Cellular entry / delivery efficiency (in words) (HeLa cells; HeLa cells, flow cytometry): lowest delivery efficiency
250 (FFRRRFQ; cyclic) [Peptide 250] | 158 ± 21 | –
255 (FRRFFRQ; cyclic) [Peptide 255] | 109 ± 11 | –
269 (FFFRRRRRRQ; cyclic) [Peptide 269] | 141 ± 10 | –
235 (cyclo(FF[dR]R[dR]Q); SMILES N=C(N)NCCC[C@@H]1NC(=O)[C@@H](CCCNC(=N)N)NC(=O)[C@H](Cc2ccccc2)NC(=O)[C@H](Cc2ccccc2)NC(=O)[C@H](CCC(N)=O)NC(=O)[C@@H](CCCNC(=N)N)NC1=O) [Peptide 235] | 122 | –
cyclo(S-A-S-F-Φ-r-p-P-R-R-F-S-A-S-A-Q)-miniPEG-K(NF) (cyclo(SASF[2Nal][dR][dP]PRRFSASAQ); not fully specified (residue 16); printed as cyclo(S-A-S-F-Φ-r-p-P-R-R-F-S-A-S-A-Q)-miniPEG-K(NF)) [BH11] | – | Cellular Uptake (MFINF, %) (HeLa cells; [1]): 245 ± 16%
257 (FRFRFRQ; cyclic) [Peptide 257] | 105 ± 14 | –
244 (FRRFRRQ; cyclic) [Peptide 244] | 31 ± 3 | –
281 (Ac-K[dF]FR[dR]R[dR]D; lactam 1-8 (inferred); not fully specified; printed as Ac-(Lys-fFRrRrD)) [Peptide 281] | 129 ± 9 | –
cyclo(FΦrpPRRFAQ)-miniPEG-K(NF) (cyclo(F[2Nal][dR][dP]PRRFAQ); not fully specified (residue 10); printed as cyclo(FΦrpPRRFAQ)-miniPEG-K(NF)) [BHT2] | – | Cellular Uptake (MFI^NF, %) of β-hairpin transporters (HeLa cells; HeLa cells): 15% and 15 ± 2%

Molecule | Cellular Uptake (MFI^NF, %), cytosolic delivery efficiency of CPPs without beta-hairpin moiety (HeLa cells) [%] | also measured
cyclo(A-A-F-Φ-R-p-P-R-r-F-A-A-A-Q)-miniPEG-K(NF) (cyclo(AAF[2Nal]R[dP]PR[dR]FAAAQ); not fully specified (residue 14); printed as cyclo(A-A-F-Φ-R-p-P-R-r-F-A-A-A-Q)-miniPEG-K(NF)) [BH7] | – | Cellular Uptake (MFINF, %) (HeLa cells; [1]): 363 ± 213%; Improvement of cytosolic entry efficiency relative to BH4 (HeLa cells; HeLa cells): 5 fold
247 (RFRRFRQ; cyclic) [Peptide 247] | 94 ± 9 | –
258 (RFFRFRQ; cyclic) [Peptide 258] | 96 ± 31 | –
cyclo[F-F-Φ-r-P-p-R-R-F-Q-K(NF)-D-P-E-T-G-E] (cyclo(FF[2Nal][dR]P[dP]RRFQK(NF)DPETGE)) [BH22] | – | Cellular Uptake (MFI^NF, %) of Keap1-Nrf2 inhibitors (HeLa cells; HeLa cells, NF-labeled peptide, flow cytometry, relative to CPP1 (100%)): 56.9%; Cellular entry, fold less efficient than BH20 (HeLa cells; HeLa cells, -L-Pro-D-Pro- instead of -D-Pro-L-Pro-): ~2 fold
241 (FFFRAQ; cyclic) [Peptide 241] | 52 ± 2 | –
252 (RRFFFRQ; cyclic) [Peptide 252] | 172 ± 24 | –
276 (cyclo([dF]F[d2Nal][dR]R[dR]Q); also: further D-residues, places not given here) [Peptide 276] | 250 ± 37 | –
246 (RFFRRRQ; cyclic) [Peptide 246] | 63 ± 19 | –
284 (CWWWRRRRC; disulfide 1-9) [Peptide 284] | 67 | –
286 (CWWWRRRC; disulfide 1-8) [Peptide 286] | 135 | –
cyclo(A-A-F-Φ-R-p-P-R-R-R-A-A-A-Q)-miniPEG-K(NF) (cyclo(AAF[2Nal]R[dP]PRRRAAAQ); not fully specified (residue 14); printed as cyclo(A-A-F-Φ-R-p-P-R-R-R-A-A-A-Q)-miniPEG-K(NF)) [BH1] | – | Cellular Uptake (MFINF, %) (HeLa cells; [1]): 66 ± 12%
cyclo(A-E-T-G-E-F-L-F-Φ-r-p-P-R-R-F-L-Q)-miniPEG-K(NF) (cyclo(AETGEFLF[2Nal][dR][dP]PRRFLQ); not fully specified (residue 17); printed as cyclo(A-E-T-G-E-F-L-F-Φ-r-p-P-R-R-F-L-Q)-miniPEG-K(NF)) [BH12] | – | Cytosolic entry efficiency, fold higher than CPP1 (HeLa cells; HeLa cells): 5.8 fold; Cellular Uptake (MFINF, %) (HeLa cells; [1]): 575 ± 239%
254 (FFRRFRQ; cyclic) [Peptide 254] | 86 ± 12 | –
274 (cyclo([dF]F[dF]R[dR]RQ); SMILES N=C(N)NCCC[C@@H]1NC(=O)[C@@H](CCCNC(=N)N)NC(=O)[C@H](CCCNC(=N)N)NC(=O)[C@@H](Cc2ccccc2)NC(=O)[C@H](Cc2ccccc2)NC(=O)[C@@H](Cc2ccccc2)NC(=O)[C@H](CCC(N)=O)NC1=O) [Peptide 274] | 359 ± 66 | –
cyclo(A-A-F-R-R-p-P-R-R-Φ-A-A-A-Q)-miniPEG-K(NF) (cyclo(AAFRR[dP]PRR[2Nal]AAAQ); not fully specified (residue 14); printed as cyclo(A-A-F-R-R-p-P-R-R-Φ-A-A-A-Q)-miniPEG-K(NF)) [BH2] | – | Cellular Uptake (MFINF, %) (HeLa cells; [1]): 24 ± 1%
285 (CFWRRRRC; disulfide 1-8) [Peptide 285] | 49 | –
238 (FRRFRQ; cyclic) [Peptide 238] | 38 ± 10 | –
